Test results taken from ChEMBL document CHEMBL5579813, “2-(3-Indolyl)acetamides and their oxazoline analogues: Anticancer SAR study” (Bioorg Med Chem Lett, 2024).

Columns and labels:
BE(2)-C [1] = assay: Antiproliferative activity against human BE2C cells assessed as residual cell viability at 25 uM incubated for 96 hrs by MTT assay relative to control; type: functional
BE(2)-C [2] = assay: Antiproliferative activity against human BE2C cells assessed as reduction in cell growth incubated for 96 hrs by MTT assay; type: functional, cell-based
[3] = Antiproliferative activity against human Kelly cells assessed as reduction in cell growth incubated for 96 hrs by MTT assay; type: functional, cell-based
SW-620 = assay: Antiproliferative activity against human SW620 cells assessed as reduction in cell growth incubated for 96 hrs by MTT assay; type: functional, cell-based; conditions: SW-620, 96 h
[4] = Antiproliferative activity against human fibroblasts assessed as reduction in cell growth incubated for 96 hrs by MTT assay; type: toxicity, cell-based, Fibroblast

Compound | Residual cell viability (BE(2)-C [1]) [%] | IC50 (BE(2)-C [2]) [µM] | also measured
NC(=O)C(c1ccccc1)c1c(-c2ccc3ccccc3c2)[nH]c2ccccc12 (stereo not drawn) | 19.2 | 8.46 | 
NC(=O)C(c1ccccc1)c1c(-c2ccc3ccccc3c2)[nH]c2ccc(Cl)cc12 (stereo not drawn) | 144 |  | 
COc1ccc(C(C(N)=O)c2c(-c3ccccc3)[nH]c3ccccc23)cc1 (stereo not drawn) | 129 |  | 
COc1ccc(C(C(N)=O)c2c(-c3ccccc3)[nH]c3ccccc23)cc1OC (stereo not drawn) | 16.1 |  | 
NC(=O)C(c1ccccc1)c1c(-c2ccccc2)[nH]c2ccccc12 (stereo not drawn) | 185 |  | 
CC1(C)COC(C(c2ccccc2)c2c(-c3ccccc3)[nH]c3ccccc23)=N1 (stereo not drawn) | 13.3 |  | 
COc1ccc(-c2[nH]c3ccccc3c2C(C(N)=O)c2ccccc2)cc1 (stereo not drawn) | 100 |  | 
CCc1ccc(C(C2=NC(C)(C)CO2)c2c(-c3ccc(C)c(C)c3)[nH]c3ccccc23)cc1 (stereo not drawn) | 16.5 |  | 
COc1ccc(C(C(N)=O)c2c(-c3ccc4ccccc4c3)[nH]c3ccccc23)cc1 (stereo not drawn) | 13.7 | 0.47 | 
COc1ccc(C(C2=NC(C)(C)CO2)c2c(-c3ccc(C)cc3)[nH]c3ccccc23)cc1 (stereo not drawn) | 17.2 | 9.4 | 
COc1ccc(-c2[nH]c3ccccc3c2C(C(N)=O)c2ccc(C)cc2)cc1 (stereo not drawn) | 87 | 4.65 | 
CC(C)c1ccc(C(C(N)=O)c2c(-c3ccccc3)[nH]c3ccccc23)cc1 (stereo not drawn) | 88 | 24 | 
CC1(C)COC(C(c2ccccc2F)c2c(-c3ccc4c(c3)CCCC4)[nH]c3ccccc23)=N1 (stereo not drawn) | 25.6 | 88 | 
CCc1ccc(C(C2=NC(C)(C)CO2)c2c(-c3ccc4c(c3)CCCC4)[nH]c3ccccc23)cc1 (stereo not drawn) | 33.3 |  | 
NC(=O)C(c1ccc(Cl)cc1)c1c(-c2ccc3ccccc3c2)[nH]c2ccccc12 (stereo not drawn) | 13.9 | 0.79 | 
COc1ccccc1C(C1=NC(C)(C)CO1)c1c(-c2ccc3c(c2)CCCC3)[nH]c2ccccc12 (stereo not drawn) | 42 | 20 | 
NC(=O)C(c1ccccc1Cl)c1c(-c2ccc3ccccc3c2)[nH]c2ccccc12 (stereo not drawn) | 132 | 0.96 | 
CCc1ccc(C(C2=NC(C)(C)CO2)c2c(-c3ccc(C)cc3)[nH]c3ccccc23)cc1 (stereo not drawn) | 189 |  | 
NC(=O)C(c1cccc(Cl)c1)c1c(-c2ccc3ccccc3c2)[nH]c2ccccc12 (stereo not drawn) | 142 |  | 

Compound | Residual cell viability (BE(2)-C [1]) [%] | IC50 (BE(2)-C [2]) [µM] | also measured
COc1ccc(C(C2=NC(C)(C)CO2)c2c(-c3ccc(C)c(C)c3)[nH]c3ccccc23)cc1 (stereo not drawn) | 135 |  | 
Cc1ccc(C(C(N)=O)c2c(-c3ccc4ccccc4c3)[nH]c3ccccc23)cc1 (stereo not drawn) | 14.5 | 0.29 | IC50 [3]: 0.93 µM; IC50 (SW-620): 0.37 µM; IC50 at 96 h [4]: 75.7 µM
CC1(C)COC(C(c2ccccc2)c2c(-c3ccc4ccccc4c3)[nH]c3ccccc23)=N1 (stereo not drawn) | 128 |  | 
NC(=O)C(c1ccc(Cl)cc1)c1c(-c2ccccc2)[nH]c2ccccc12 (stereo not drawn) | 14.1 | 0.99 | 
Cc1ccc(-c2[nH]c3ccccc3c2C(C2=NC(C)(C)CO2)c2ccccc2)cc1 (stereo not drawn) | 134 |  | 
COc1ccc(-c2[nH]c3ccccc3c2C(C(N)=O)c2ccccc2OC)cc1 (stereo not drawn) | 178 | 7.34 | 
NC(=O)C(c1ccccc1)c1c(-c2ccccc2)[nH]c2ccc(Cl)cc12 (stereo not drawn) | 136 | 14 | 
CC1(C)COC(C(c2ccccc2Cl)c2c(-c3ccc4c(c3)CCCC4)[nH]c3ccccc23)=N1 (stereo not drawn) | 34.3 | 6.1 | 
COc1ccc(-c2[nH]c3ccccc3c2C(C(N)=O)c2ccccc2OC)cc1OC (stereo not drawn) | 169 |  | 
COc1ccc(C(C(N)=O)c2c(-c3ccc4ccccc4c3)[nH]c3ccccc23)cc1OC (stereo not drawn) | 49.2 | 0.25 | IC50 [3]: 0.23 µM; IC50 (SW-620): 1.71 µM; IC50 at 96 h [4]: 192 µM
NC(=O)C(c1ccccc1Cl)c1c(-c2ccccc2)[nH]c2ccccc12 (stereo not drawn) | 13.9 |  | 
Cc1ccc(-c2[nH]c3ccccc3c2C(C(N)=O)c2ccccc2)cc1 (stereo not drawn) | 159 |  | 
Cc1ccc(C(C(N)=O)c2c(-c3ccccc3)[nH]c3ccccc23)cc1 (stereo not drawn) | 151 |  | 
NC(=O)C(c1cccc(Cl)c1)c1c(-c2ccccc2)[nH]c2ccccc12 (stereo not drawn) | 14.1 |  | 
COc1ccccc1C(C(N)=O)c1c(-c2ccccc2)[nH]c2ccccc12 (stereo not drawn) | 147 |  | 
CC1(C)COC(C(c2ccc(Cl)cc2)c2c(-c3ccc4c(c3)CCCC4)[nH]c3ccccc23)=N1 (stereo not drawn) | 145 | 18.8 | 
COc1ccccc1C(C(N)=O)c1c(-c2ccc3ccccc3c2)[nH]c2ccccc12 (stereo not drawn) | 42.4 | 0.28 | IC50 [3]: 1.33 µM; IC50 (SW-620): 1.41 µM; IC50 at 96 h [4]: 155 µM
CC1=C(/C=C/C(C)=C/C=C/C(C)=C/C(=O)O)C(C)(C)CCC1 [TRETINOIN] |  | 6.7 | 
